Measured values reported in patent US11780849B2, “Imino sulfanone inhibitors of ENPP1” (Volastra Therapeutics, Inc., priority 2020, dated 2023).
Like-named read-outs stand apart in the source and are kept apart here.

Experiments:
ENPP-1 ECD [1] = molecular target: T1, ENPP-1 ECD (Homo sapiens (Human), UniProt P22413); assay: Assay 2: inhibition of ENPP1 hydrolysis of 2′,3′-cGAMP (AMP-Glo, […] enzyme)
Method: Assay 2: Compared to the conditions in Assay 1, this assay has a larger dynamic range and ensures the system is under steady-state conditions by reducing the enzyme concentration in the assay.
Test compounds were plated in a 3× dilution scheme in a 384 well plate. […] AMP Detection solution (10 μL) was added to each well, the plate centrifuged and incubated for 60 min.

[2] = molecular target: ENPP1 on MDA-MB-231 cells (Homo sapiens (Human), UniProt P22413); assay: Assay 3: inhibition of ENPP1 hydrolysis of AMP p-nitrophenyl ester on MDA-MB-231 cells
ENPP1 on MDA-MB-231 cells, sequence (P22413 whole entry, the tested form may be a part): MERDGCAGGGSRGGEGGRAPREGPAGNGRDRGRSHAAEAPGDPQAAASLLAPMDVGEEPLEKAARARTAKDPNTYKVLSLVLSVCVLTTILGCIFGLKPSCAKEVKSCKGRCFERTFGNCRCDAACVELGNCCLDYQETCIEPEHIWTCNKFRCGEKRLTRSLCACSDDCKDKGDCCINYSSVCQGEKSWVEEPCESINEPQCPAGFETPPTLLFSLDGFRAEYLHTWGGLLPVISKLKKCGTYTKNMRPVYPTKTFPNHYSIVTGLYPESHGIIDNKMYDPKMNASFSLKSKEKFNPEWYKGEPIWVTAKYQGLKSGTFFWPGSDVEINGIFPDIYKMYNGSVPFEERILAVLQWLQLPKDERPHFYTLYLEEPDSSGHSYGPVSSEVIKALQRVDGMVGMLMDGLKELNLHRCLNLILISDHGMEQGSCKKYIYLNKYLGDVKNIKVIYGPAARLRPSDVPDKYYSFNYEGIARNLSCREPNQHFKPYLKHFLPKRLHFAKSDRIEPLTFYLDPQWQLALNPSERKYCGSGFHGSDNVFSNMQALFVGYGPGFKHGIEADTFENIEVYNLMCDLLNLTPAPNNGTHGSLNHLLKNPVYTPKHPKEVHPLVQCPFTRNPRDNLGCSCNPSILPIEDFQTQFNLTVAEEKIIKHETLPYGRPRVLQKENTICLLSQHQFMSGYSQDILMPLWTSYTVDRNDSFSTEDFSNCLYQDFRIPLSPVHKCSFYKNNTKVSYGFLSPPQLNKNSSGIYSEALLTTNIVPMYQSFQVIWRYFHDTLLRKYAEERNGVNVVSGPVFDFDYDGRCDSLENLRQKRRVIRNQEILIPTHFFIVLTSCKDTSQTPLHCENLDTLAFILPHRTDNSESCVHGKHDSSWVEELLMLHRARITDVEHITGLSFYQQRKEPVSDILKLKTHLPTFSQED
Method: Hydrolysis of the p-nitrophenyl ester of AMP (pNP-AMP), an isostere of ATP, is selectively catalyzed by ENPP1 in the supernatant of MDA-MB-231 cell cultures. Inhibition of the hydrolysis of pNP-AMP by MDA-MB-231 at pH 7.4 and 37° C., is a good model of physiologically relevant activity of membrane-bound ENPP1 at disease-relevant expression levels.
MDA-MB-231 cells were harvested using TypLE Express Enzyme digestion and suspended in 100 μL of Leibovitz's L-15 Medium, 20% FBS, seeding the cells in a 96-well assay plate with 4.5×10^4 cells/well. Cells were incubated at 37° C. with 1% CO2 for 24 h. In a separate dilution plate, 2× of top dose of compound was prepared in phenol-red free 1640 medium without FBS and then 1:3 serial diluted in the same medium. The cell culture medium of L15 medium was aspirated carefully and cells were washed with PBS once, and 50 μL per well of test compound or DMSO blank were added to the assay plate. Substrate mix (50 μL; 0.5 mM pNP-AMP in phenol-red free 1640 media without FBS) was added for a pNP-AMP final concentration of 0.25 mM. The system was incubated at 37° C. for 3 h.

ENPP-1 ECD [3] = molecular target: T1, ENPP-1 ECD; assay: Assay 1: inhibition of ENPP1 hydrolysis of 2′,3′-cGAMP (AMP-Glo, […] enzyme)
Method: Assay 1: Test compounds were plated in a 3× dilution scheme in a 384 well plate. […] AMP Detection solution (100 μL) was added to each well, the plate centrifuged and incubated for 60 min.

[4] = Assay 2 (KI), ENPP1 hydrolysis of 2′,3′-cGAMP, AMP-Glo, […] ENPP-1, 24 μM cGAMP
[5] = Assay 2 (KI), inhibition of ENPP1 hydrolysis of 2′,3′-cGAMP, no unit in Table 18 (Table 17 legend for this assay uses nM)
[6] = read-out: Assay 2 (KI), inhibition of ENPP1 hydrolysis of 2′,3′-cGAMP, no unit in Table 18 (Table 17 legend for this assay uses nM)
[7] = read-out: Assay 3 (KI, app), apparent KI from IC50 via Cheng/Prusoff, pNP-AMP […], MDA-MB-231 cells, pH 7.4, 37° C., 3 h, unit inferred
[8] = read-out: Assay 1 (IC50), ENPP1 hydrolysis of 2′,3′-cGAMP, AMP-Glo
[9] = read-out: Assay 1 (IC50), inhibition of ENPP1 hydrolysis of 2′,3′-cGAMP, no unit in Table 18 (Table 17 legend for this assay uses nM)
[10] = read-out: Assay 2 (KI), ENPP1 hydrolysis of 2′,3′-cGAMP, AMP-Glo, […] ENPP-1, 24 μM cGAMP
[11] = Assay 1 (IC50), ENPP1 hydrolysis of 2′,3′-cGAMP, AMP-Glo
[12] = Assay 1 (IC50), inhibition of ENPP1 hydrolysis of 2′,3′-cGAMP, no unit in Table 18 (Table 17 legend for this assay uses nM)

T1 sequence (P22413 98-925): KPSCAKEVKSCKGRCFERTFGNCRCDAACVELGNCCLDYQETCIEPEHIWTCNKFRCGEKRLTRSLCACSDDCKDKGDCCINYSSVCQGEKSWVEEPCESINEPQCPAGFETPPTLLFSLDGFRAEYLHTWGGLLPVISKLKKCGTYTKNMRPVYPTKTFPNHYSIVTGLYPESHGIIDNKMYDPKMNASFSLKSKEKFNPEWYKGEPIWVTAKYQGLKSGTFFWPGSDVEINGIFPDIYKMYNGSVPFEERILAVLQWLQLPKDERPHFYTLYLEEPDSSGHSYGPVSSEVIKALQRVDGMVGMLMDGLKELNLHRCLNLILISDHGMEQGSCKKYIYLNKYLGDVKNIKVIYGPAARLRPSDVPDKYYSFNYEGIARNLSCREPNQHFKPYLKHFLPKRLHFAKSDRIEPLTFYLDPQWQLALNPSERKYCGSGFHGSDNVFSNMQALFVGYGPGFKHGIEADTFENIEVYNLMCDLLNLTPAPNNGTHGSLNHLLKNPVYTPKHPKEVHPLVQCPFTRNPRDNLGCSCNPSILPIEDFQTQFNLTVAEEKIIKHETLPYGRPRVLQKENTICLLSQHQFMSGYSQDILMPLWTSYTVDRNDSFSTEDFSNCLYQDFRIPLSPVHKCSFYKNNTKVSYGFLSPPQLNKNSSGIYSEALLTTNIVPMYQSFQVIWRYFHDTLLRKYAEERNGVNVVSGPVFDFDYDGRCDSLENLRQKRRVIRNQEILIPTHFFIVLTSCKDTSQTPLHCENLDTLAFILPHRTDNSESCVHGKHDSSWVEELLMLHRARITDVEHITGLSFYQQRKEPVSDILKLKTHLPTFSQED

Structure (SMILES)	Ki (ENPP-1 ECD [1]; [4]) [nM]	Ki (ENPP-1 ECD [1]; [5]) [nM]	IC50 (ENPP-1 ECD [3]; [8]) [nM]	IC50 (ENPP-1 ECD [3]; [11]) [nM]	IC50 (ENPP-1 ECD [3]; [12]) [nM]	other results
COc1cc2ncc(C#N)c(N3CCC(CCS(C)(=N)=O)CC3)c2cc1OC (centres unmarked) [Compound 144, 4-(4-{2-[imino(methyl)oxo-λ6-sulfanyl]ethyl}piperidin-1-yl)-6,7-dimethoxyquinoline-3-carbonitrile]	< 3	0.28	–	–	–	Ki [2]: 19 nM
COc1cccc2c(N3CCC(O)(C[S@@](C)(=N)=O)CC3)c(C#N)cnc12 [Compound 198a]	–	–	–	–	–	Ki (ENPP-1 ECD [1]; [6]): 0.0025 nM; Ki [2, 7]: 0.086 nM
COc1cc2nccc(OCc3cccc(S(C)(=N)=O)c3)c2cc1Cl (centres unmarked) [Compound 176, (3-{[(6-chloro-7-methoxyquinolin-4-yl)oxy]methyl}phenyl)(imino)methyl-λ^6-sulfanone]	–	0.094	–	–	–	Ki [2]: 7.2 nM
COc1cc2nncc(N3CCC4(CC3)CCN([S@](C)(=N)=O)C4)c2cc1OC [Compound 211a]	–	–	–	–	–	Ki (ENPP-1 ECD [1]; [6]): 0.023 nM; Ki [2, 7]: 2.2 nM
COc1cc2ncnc(N3CCC4(CC3)CCN(S(=N)(=O)CC(C)(C)O)C4)c2cc1OC (centres unmarked) [Compound 240, [8-(6,7-dimethoxyquinazolin-4-yl)-2,8-diazaspiro[4.5]decan-2-yl](2-hydroxy-2-methylpropyl)imino-λ^6-sulfanone]	–	0.069	–	–	–	Ki [2]: 5.4 nM
COc1cc2nc(C)nc(N3CCC4(CC3)CCN(S(C)(=N)=O)C4)c2cc1OC (centres unmarked) [Compound 213, [8-(6,7-dimethoxy-2-methylquinazolin-4-yl)-2,8-diazaspiro[4.5]decan-2-yl](imino)methyl-λ^6-sulfanone]	–	0.058	–	–	–	Ki [2]: 2.8 nM
COc1ccc2c(COc3ccc(S(C)(=N)=O)cc3)ccnc2c1 (centres unmarked) [Compound 231, imino({4-[(7-methoxyquinolin-4-yl)methoxy]phenyl})methyl-λ^6-sulfanone]	–	1.2	–	–	–	Ki [2]: 56 nM
COc1cc2ncnc(N3CCC4(CC3)CCN(S(C)(=N)=O)C4)c2cc1OCF (centres unmarked) [Compound 241, {8-[6-(fluoromethoxy)-7-methoxyquinazolin-4-yl]-2,8-diazaspiro[4.5]decan-2-yl}(imino)methyl-λ^6-sulfanone]	–	0.031	–	–	–	Ki [2]: 1.2 nM
COc1cc2nccc(OCc3cccc(S(C)(=N)=O)c3)c2cc1OC (centres unmarked) [Compound 175, (3-{[(6,7-dimethoxyquinolin-4-yl)oxy]methyl}phenyl)(imino)methyl-λ^6-sulfanone]	–	0.037	–	–	–	Ki [2]: 3.5 nM
COc1cc2nncc(N3CCC4(CC3)CCN([S@](C)(=N)=O)C4)c2cc1Cl [Compound 219a]	–	–	–	–	–	Ki (ENPP-1 ECD [1]; [6]): 0.071 nM; Ki [2, 7]: 1.2 nM
CC[S@@](=N)(=O)c1ccc(Oc2ccnc3cc(OC)ccc23)cc1 [Compound 103a]	–	–	> 1000	–	–	IC50 (ENPP-1 ECD [3]; [9]): 1600 nM; Ki (ENPP-1 ECD [1]; [10]): > 300 nM; Ki (ENPP-1 ECD [1]; [6]): 450 nM
COc1ccc2c(OCc3ccc([S@](C)(=N)=O)cc3)ccnc2c1 [Compound 75b]	–	–	> 1000	–	–	Ki (ENPP-1 ECD [1]; [10]): 3 to 300 nM; Ki (ENPP-1 ECD [1]; [6]): 98 nM
COc1ccc2c(Oc3ccc([S@](C)(=N)=O)cc3)ccnc2c1 [Compound 80b]	–	–	10 to 1000	–	–	IC50 (ENPP-1 ECD [3]; [9]): 180 nM; Ki (ENPP-1 ECD [1]; [10]): 3 to 300 nM; Ki (ENPP-1 ECD [1]; [6]): 13 nM
COc1ccc2c(Oc3ccc(CS(C)(=N)=O)cc3)ccnc2c1 (centres unmarked) [Compound 79, imino(4-((7-methoxyquinolin-4-yl)oxy)benzyl)(methyl)-λ^6-sulfanone]	3 to 300	220	–	10 to 1000	740	–
COc1ccc2c(N3CCC(CCS(C)(=N)=O)CC3)ncnc2c1 (centres unmarked) [Compound 139, imino({2-[1-(7-methoxyquinazolin-4-yl)piperidin-4-yl]ethyl})methyl-λ^6-sulfanone]	< 3	2.4	–	10 to 1000	15	–
COc1ccc2c(Oc3ccc(S(C)(=N)=O)cc3)cnnc2c1 (centres unmarked) [Compound 119, imino({4-[(7-methoxycinnolin-4-yl)oxy]phenyl})methyl-λ^6-sulfanone]	3 to 300	17	–	10 to 1000	66	–
COc1ccc2c(N3CCC(CCS(C)(=N)=O)CC3)ncnc2c1OC (centres unmarked) [Compound 165, (2-(1-(7,8-dimethoxyquinazolin-4-yl)piperidin-4-yl)ethyl)(imino)(methyl)-l6-sulfanone]	> 300	1400	> 1000	–	> 30000	–
COc1cc2nccc(Oc3ccc(S(C)(=N)=O)cc3)c2cc1Cl (centres unmarked) [Compound 126, {4-[(6-chloro-7-methoxyquinolin-4-yl)oxy]phenyl}(imino)methyl-λ^6-sulfanone]	3 to 300	11	–	10 to 1000	39	–

Structure (SMILES)	Ki (ENPP-1 ECD [1]; [4]) [nM]	Ki (ENPP-1 ECD [1]; [5]) [nM]	IC50 (ENPP-1 ECD [3]; [8]) [nM]	IC50 (ENPP-1 ECD [3]; [11]) [nM]	IC50 (ENPP-1 ECD [3]; [12]) [nM]	other results
COc1ccc2c(-c3ccc(CCS(C)(=N)=O)cc3)ccnc2c1 (centres unmarked) [Compound 98, imino(4-(7-methoxyquinolin-4-yl)phenethyl)(methyl)-λ^6-sulfanone]	3 to 300	25	–	10 to 1000	140	–
CS(=N)(=O)c1ccc(Oc2ccnc3ccccc23)cc1 (centres unmarked) [Compound 125, imino(methyl)[4-(quinolin-4-yloxy)phenyl]-λ^6-sulfanone]	–	110	–	10 to 1000	340	–
COc1cc2ncnc(-c3ccc(CCS(C)(=N)=O)cc3)c2cc1OC (centres unmarked) [Compound 153, {2-[4-(6,7-dimethoxyquinazolin-4-yl)phenyl]ethyl}(imino)methyl-λ^6-sulfanone]	3 to 300	12	–	10 to 1000	54	–
COc1cccc2c(Oc3ccc(S(C)(=N)=O)cc3)ccnc12 (centres unmarked) [Compound 118, imino({4-[(8-methoxyquinolin-4-yl)oxy]phenyl})methyl-λ^6-sulfanone]	3 to 300	36	–	10 to 1000	160	–
COc1cccc2c(N3CCC(CCS(C)(=N)=O)CC3)ccnc12 (centres unmarked) [Compound 140, imino({2-[1-(8-methoxyquinolin-4-yl)piperidin-4-yl]ethyl})methyl-λ^6-sulfanone]	3 to 300	180	–	10 to 1000	880	–
COc1cc2nccc(Oc3ccc([S@](C)(=N)=O)cc3)c2cc1OC [Compound 1R, (R)-(4-((6,7-dimethoxyquinolin-4-yl)oxy)phenyl)(imino)(methyl)-λ^6-sulfanone]	> 300	330	> 1000	–	3200	–
COc1ccc2c(OCc3cccc([S@](C)(=N)=O)c3)ccnc2c1 [Compound 133b]	–	–	> 1000	–	–	IC50 (ENPP-1 ECD [3]; [9]): > 100 nM; Ki (ENPP-1 ECD [1]; [10]): 3 to 300 nM; Ki (ENPP-1 ECD [1]; [6]): 49 nM
COc1cccc2c(Oc3ccc(S(C)(=N)=O)cc3)ncnc12 (centres unmarked) [Compound 84, imino(4-((8-methoxyquinazolin-4-yl)oxy)phenyl)(methyl)-λ^6-sulfanone]	3 to 300	210	> 1000	–	1300	–
COc1ccc2c(N3CCC4(CC3)CCN([S@@](C)(=N)=O)C4)ccnc2c1 [Compound 55b]	–	–	10 to 1000	–	–	IC50 (ENPP-1 ECD [3]; [9]): 45 nM; Ki (ENPP-1 ECD [1]; [10]): 3 to 300 nM; Ki (ENPP-1 ECD [1]; [6]): 7.3 nM
COc1ccc2c(OCc3ccc(S(C)(=N)=O)cc3Br)ccnc2c1 (centres unmarked) [Compound 137, (3-bromo-4-{[(7-methoxyquinolin-4-yl)oxy]methyl}phenyl)(imino)methyl-λ^6-sulfanone]	3 to 300	38	–	10 to 1000	200	–
COc1cc2nccc(Oc3ccc(S(C)(=N)=O)nc3)c2cc1OC (centres unmarked) [Compound 129, {5-[(6,7-dimethoxyquinolin-4-yl)oxy]pyridin-2-yl}(imino)methyl-λ^6-sulfanone]	3 to 300	39	–	10 to 1000	260	–
COc1cc2nccc(Oc3ccc([S@](=N)(=O)C4CC4)cc3)c2cc1F [Compound 120b]	–	–	10 to 1000	–	–	IC50 (ENPP-1 ECD [3]; [9]): 37 nM; Ki (ENPP-1 ECD [1]; [10]): 3 to 300 nM; Ki (ENPP-1 ECD [1]; [6]): 4.8 nM
COc1ccc2c(N3CCC(CCS(C)(=N)=O)CC3)ccnc2c1 (centres unmarked) [Compound 69, imino(2-(1-(7-methoxyquinolin-4-yl)piperidin-4-yl)ethyl)(methyl)-λ^6-sulfanone]	3 to 300	10	–	10 to 1000	55	–
COc1cc2ncnc(Oc3ccc(S(C)(=N)=O)cc3)c2cc1OC (centres unmarked) [Compound 18, (4-((6,7-dimethoxyquinazolin-4-yl)oxy)phenyl)(imino)(methyl)-λ^6-sulfanone]	3 to 300	24	–	10 to 1000	180	–
COc1ccc2c(-c3ccc(CNS(C)(=N)=O)cc3)ccnc2c1 (centres unmarked) [Compound 162, N-{[4-(7-methoxyquinolin-4-yl)phenyl]methyl}methanesulfonoimidamide]	3 to 300	6.9	–	10 to 1000	40	–
CS(=N)(=O)c1ccc(Oc2cnnc3ccccc23)cc1 (centres unmarked) [Compound 22, (4-(cinnolin-4-yloxy)phenyl)(imino)(methyl)-λ^6-sulfanone]	> 300	310	> 1000	–	1200	–
COc1cc2nccc(Oc3ccc([S@@](C)(=N)=O)cc3)c2cc1F [Compound 114b]	–	–	10 to 1000	–	–	IC50 (ENPP-1 ECD [3]; [9]): 77 nM; Ki (ENPP-1 ECD [1]; [10]): 3 to 300 nM; Ki (ENPP-1 ECD [1]; [6]): > 25 nM
